Assays:
Assay type in all cases: in vivo
Acalypha australis = assay: Laboratory bioactivity efficacy test 2.1 (foliar spray); settings: for GR50 / GR90: fresh weight control efficacy 14 days after application
Description: (§1) Refer to the “Pesticides guidelines for laboratory bioactivity tests Part 4: Foliar spray application test for herbicide activity, NY/T 1155.4-2006”.
(§2) • grassy weeds: Setaria viridis, Chloris virgata; • sedge: Cyperus rotundus; • Broadleaf weeds: Amaranthus retroflexus, Chenopodium album, Acalypha australis, Commelina communis, Convolvulus arvensis, Cirsium setosum, and Eclipta prostrata. 2.1.3 Test Conditions
(§3) The soil used for the test was a mixture of surface 20 cm loam and vermiculite, mixed in a volume ratio of 3:1 to form a culture soil. The test corn was cultured in a glass greenhouse with a temperature ranging from 25° C. to 35° C. and under natural light.
(§4) A measured quantity of weed seeds were sown in plastic pots with a diameter of 9 cm, and covered with 1-2 mm of soil. The ports were then placed in enamel trays filled with water, and watered by bottom irrigation. After sowing, the pots were transferred to the glass greenhouse for cultivation and growth.
(§5) Five dosages were set for Compound I, Compound II and the control herbicide Topramezone, which were 3.75, 7.5, 15, 30 and 60 grams of active ingredient per hectare respectively. In addition, a blank control was also prepared.
(§6) The required amount of the herbicide was accurately measured out, an appropriate amount of emulsifier and organic solvent were added to dissolve the herbicide, and then a certain amount of water was added therein until the herbicide was diluted to the required dosage by using the serial dilution method for standby.
(§7) The fresh weight of each treatment was surveyed 14 days after the application of the herbicide. The fresh weight control efficacy was calculated according to the following formula: fresh weight control efficacy (%)=(control fresh weight−treatment fresh weight)/control fresh weight×100.
(§8) A DPS statistical software was used to conduct regression analysis on the logarithmic values of the herbicide dosage and the probit values of the corn fresh weight control efficacy, and the correlation coefficient, GR50, GR90, and the 95% confidence interval were calculated.

Amaranthus retroflexus = assay: as above; settings: for GR50 / GR90: fresh weight control efficacy 14 days after application
Description: as §1, §2, §3, §4, §5, §6, §7, §8

Chenopodium album = assay: as above; settings: for GR50 / GR90: fresh weight control efficacy 14 days after application
Description: as §1, §2, §3, §4, §5, §6, §7, §8

Chloris virgata = assay: as above; settings: for GR50 / GR90: fresh weight control efficacy 14 days after application
Description: as §1, §2, §3, §4, §5, §6, §7, §8

Cirsium setosum = assay: as above; settings: for GR50 / GR90: fresh weight control efficacy 14 days after application
Description: as §1, §2, §3, §4, §5, §6, §7, §8

Commelina communis = assay: as above; settings: for GR50 / GR90: fresh weight control efficacy 14 days after application
Description: as §1, §2, §3, §4, §5, §6, §7, §8

Convolvulus arvensis = assay: as above; settings: for GR50 / GR90: fresh weight control efficacy 14 days after application
Description: as §1, §2, §3, §4, §5, §6, §7, §8

Cyperus rotundus = assay: as above; settings: for GR50 / GR90: fresh weight control efficacy 14 days after application
Description: as §1, §2, §3, §4, §5, §6, §7, §8

Eclipta prostrata = assay: as above; settings: for GR50 / GR90: fresh weight control efficacy 14 days after application
Description: as §1, §2, §3, §4, §5, §6, §7, §8

Setaria viridis = assay: as above; settings: for GR50 / GR90: fresh weight control efficacy 14 days after application
Description: as §1, §2, §3, §4, §5, §6, §7, §8

[1] = test system: Abutilon theophrasti medicus; assay: Laboratory bioactivity efficacy test 2.2 (foliar spray); settings: for Visual observation of weeds: 3 to 7 days after application, broadleaf weeds like Abutilon theophrasti medicus; for GR50 (95% confidence interval) / GR90 (95% confidence interval): fresh weight control efficacy 20 days post-application
Protocol: (§9) • grassy weeds: Digitaria sanguinalis, Eleusine indica, Echinochloa crusgalli; • Broadleaf weeds: Portulaca oleracea, Abutilon theophrasti medicus. 2.2.2 Test Conditions
(§10) The soil used for the test was a mixture of surface 20 cm loam and vermiculite, mixed in a volume ratio of 3:1 to form a culture soil. The test weeds were cultured in a glass greenhouse with a temperature ranging from 25° C. to 35° C. and under natural light.
(§11) Quantified seeds of Digitaria sanguinalis, Eleusine indica, Echinochloa crusgalli, Portulaca oleracea, and Abutilon theophrasti medicus were sown in plastic pots with a diameter of 9 cm, and covered with 1-2 mm of soil. The ports were then placed in enamel trays filled with water, and watered by bottom irrigation. After the water seeped to the soil surface, the pots were transferred to the glass greenhouse for standby.
as §5
(§12) The required amount of the herbicide was accurately measured out and directly added with water, which was diluted to the required dosage by using the serial dilution method for standby.
(§13) The test was conducted on grassy weeds at the two-leaf and one-heart stage, Abutilon theophrasti medicus at the 2-true-leaf stage, and Portulaca oleracea at the 3-5-leaf stage, with the stems and leaves both sprayed uniformly. The ASS-4 automatic control spraying system with a fan-shaped nozzle was used indoors for herbicide application. Depending on the nozzle pressure and flow rate, 50 mL of herbicide solution was applied to a spraying area of 1.1 m^2 (which was equivalent to the water consumption of 30 L per mu). The system's operating speed was calibrated. The plastic pots to be treated were arranged evenly on the spraying platform to ensure uniform treatment. The spray pressure was set to 0.35 MPa, and the flow rate of the fan-shaped nozzle was set to 800 mL/min. The spraying was carried out in sequence from the low dosage to the high dosage. Each treatment was repeated two to four times.
(§14) The herbicide was applied once. After spraying, the pots were air-dried for one day and then placed in the glass greenhouse. Regular watering was conducted to maintain moisture.
(§15) The damage symptoms of the weeds (such as growth inhibition, chlorosis, malformation, etc.) were carefully recorded at 3, 7, 10, and 20 days after herbicide application. A visual comparison of the herbicide effectiveness was made. At 20 days post-application, the fresh weight of the aboveground parts of the weeds from each treatment group was measured, and the fresh weight control efficacy was calculated.
(§16) The treatment results were calculated according to the following formula: weed fresh weight control efficacy (%)=(control fresh weight−treatment fresh weight)/control fresh weight×100.
(§17) A DPS statistical software was used to conduct regression analysis on the logarithmic values of the herbicide dosage and the probit values of the weed fresh weight control efficacy, and the correlation coefficient, GR50, GR90, and the 95% confidence interval were calculated.

Digitaria sanguinalis = assay: as above; settings: fresh weight control efficacy 20 days post-application
Protocol: as §9, §10, §11, §5, §12, §13, §14, §15, §16, §17

Echinochloa crusgalli = assay: as above; settings: fresh weight control efficacy 20 days post-application
Protocol: as §9, §10, §11, §5, §12, §13, §14, §15, §16, §17

Eleusine indica = assay: as above; settings: fresh weight control efficacy 20 days post-application
Protocol: as §9, §10, §11, §5, §12, §13, §14, §15, §16, §17

Portulaca oleracea = assay: as above; settings: for GR50 (95% confidence interval) / GR90 (95% confidence interval): fresh weight control efficacy 20 days post-application
Protocol: as §9, §10, §11, §5, §12, §13, §14, §15, §16, §17

[2] = test system: grassy weeds and broadleaf weeds; assay: Laboratory bioactivity efficacy test 2.2, visual observation of weeds
Protocol: as §9, §10, §11, §5, §12, §13, §14, §15

[3] = 3 to 7 days after application, grassy weeds and broadleaf weeds like Portulaca oleracea

Cc1c(C(=O)c2cnn(C)c2OC(=O)C(C)(C)C)ccc(S(C)(=O)=O)c1C1=NOCC1 [Compound II, 4-(3-(4,5-dihydroisoxazol-3-yl)-2-methyl-4-(methylsulfonyl)benzoyl)-1-methyl-1H-pyrazol-5-yl pivalate]
GR50 (Acalypha australis): 6.04 g a.i./ha | GR90 (Acalypha australis): 16.46 g a.i./ha | GR50 (Amaranthus retroflexus): 4.64 g a.i./ha | GR90 (Amaranthus retroflexus): 11.19 g a.i./ha | GR50 (Chenopodium album): 2.83 g a.i./ha | GR90 (Chenopodium album): 11.74 g a.i./ha | GR50 (Chloris virgata): 4.41 g a.i./ha | GR90 (Chloris virgata): 15.22 g a.i./ha | GR50 (Cirsium setosum): 15.14 g a.i./ha | GR90 (Cirsium setosum): 48.92 g a.i./ha | GR50 (Commelina communis): 13.73 g a.i./ha | GR90 (Commelina communis): 39.85 g a.i./ha | GR50 (Convolvulus arvensis): 7.31 g a.i./ha | GR90 (Convolvulus arvensis): 58.43 g a.i./ha | GR50 (Cyperus rotundus): 15.68 g a.i./ha | GR90 (Cyperus rotundus): 39.11 g a.i./ha | GR50 (Eclipta prostrata): 4.67 g a.i./ha | GR90 (Eclipta prostrata): 23.27 g a.i./ha | GR50 (Setaria viridis): 6.77 g a.i./ha | GR90 (Setaria viridis): 19.04 g a.i./ha | Visual observation of weeds [1]: directly dried up and died | GR50 (95% confidence interval) ([1]; Abutilon theophrasti Medicago): 1.19 (0.26-2.46) g a.i./ha | GR90 (95% confidence interval) ([1]; Abutilon theophrasti Medicago): 7.90 (4.76-10.66) g a.i./ha | GR50 (Digitaria sanguinalis): 12.53 g a.i./ha | GR90 (Digitaria sanguinalis): 48.19 g a.i./ha | GR50 (Echinochloa crusgalli): 6.13 g a.i./ha | GR90 (Echinochloa crusgalli): 12.64 g a.i./ha | GR50 (Eleusine indica): 3.79 g a.i./ha | GR90 (Eleusine indica): 19.79 g a.i./ha | Control efficacy compared with Topramezone (in words) (Portulaca oleracea): slightly better control efficacy | GR50 (95% confidence interval) (Portulaca oleracea): 5.57 (4.07-7.00) g a.i./ha | GR90 (95% confidence interval) (Portulaca oleracea): 28.20 (23.41-35.73) g a.i./ha | Visual observation of weeds [2, 3]: gradually became whitened and withered | Visual observation of weeds ([2]; 10 days after application): excellent treatment effects | Visual observation of weeds ([2]; 20 days after application): dried up and died

COC(=O)OC(C)Oc1c(C(=O)c2ccc(S(C)(=O)=O)c(C3=NOCC3)c2C)cnn1C (stereo not drawn) [Compound I, 1-((4-(3-(4,5-dihydroisoxazol-3-yl)-2-methyl-4-(methylsulfonyl)benzoyl)-1-methyl-1H-pyrazol-5-yl)oxy)ethyl methyl carbonate]
Control efficacy compared with Topramezone (in words) (Acalypha australis): significantly better control efficacy | Efficacy relative to that of Topramezone (Acalypha australis): approximately 2 times | GR50 (Acalypha australis): 2.42 g a.i./ha | GR90 (Acalypha australis): 7.55 g a.i./ha | Control efficacy compared with Topramezone (in words) (Amaranthus retroflexus): significantly better control efficacy | Efficacy relative to that of Topramezone (Amaranthus retroflexus): approximately 2 times | GR50 (Amaranthus retroflexus): 2.86 g a.i./ha | GR90 (Amaranthus retroflexus): 5.64 g a.i./ha | Control efficacy compared with Topramezone (in words) (Chenopodium album): significantly better control efficacy | Efficacy relative to that of Topramezone (Chenopodium album): approximately 2 times | GR50 (Chenopodium album): 1.22 g a.i./ha | GR90 (Chenopodium album): 5.98 g a.i./ha | Control efficacy compared with Topramezone (in words) (Chloris virgata): better control efficacy | Efficacy relative to that of Topramezone (Chloris virgata): approximately 1.5 times | GR50 (Chloris virgata): 2.25 g a.i./ha | GR90 (Chloris virgata): 10.81 g a.i./ha | Control efficacy compared with Topramezone (in words) (Cirsium setosum): significantly better control efficacy | Efficacy relative to that of Topramezone (Cirsium setosum): approximately 2 times | GR50 (Cirsium setosum): 5.56 g a.i./ha | GR90 (Cirsium setosum): 20.60 g a.i./ha | Control efficacy compared with Topramezone (in words) (Commelina communis): significantly better control efficacy | Efficacy relative to that of Topramezone (Commelina communis): approximately 2 times | GR50 (Commelina communis): 4.98 g a.i./ha | GR90 (Commelina communis): 16.38 g a.i./ha | Control efficacy compared with Topramezone (in words) (Convolvulus arvensis): significantly better control efficacy | Efficacy relative to that of Topramezone (Convolvulus arvensis): approximately 2 times | GR50 (Convolvulus arvensis): 1.81 g a.i./ha | GR90 (Convolvulus arvensis): 31.82 g a.i./ha | Control efficacy compared with Topramezone (in words) (Cyperus rotundus): better control efficacy | GR50 (Cyperus rotundus): 11.78 g a.i./ha | GR90 (Cyperus rotundus): 29.57 g a.i./ha | Control efficacy compared with Topramezone (in words) (Eclipta prostrata): significantly better control efficacy | Efficacy relative to that of Topramezone (Eclipta prostrata): approximately 2 times | GR50 (Eclipta prostrata): 2.30 g a.i./ha | GR90 (Eclipta prostrata): 11.62 g a.i./ha | Control efficacy compared with Topramezone (in words) (Setaria viridis): better control efficacy | Efficacy relative to that of Topramezone (Setaria viridis): approximately 1.5 times | GR50 (Setaria viridis): 3.96 g a.i./ha | GR90 (Setaria viridis): 11.42 g a.i./ha | Visual observation of weeds [1]: directly dried up and died | GR90 (95% confidence interval) ([1]; Abutilon theophrasti Medicago): 9.48 (4.30-13.21) g a.i./ha | GR50 (95% confidence interval) ([1]; Abutilon theophrasti medicus): 3.16 (0.37-5.92) g a.i./ha | GR50 (Digitaria sanguinalis): 10.92 g a.i./ha | GR90 (Digitaria sanguinalis): 35.88 g a.i./ha | GR50 (Echinochloa crusgalli): 6.03 g a.i./ha | GR90 (Echinochloa crusgalli): 11.04 g a.i./ha | GR50 (Eleusine indica): 2.71 g a.i./ha | GR90 (Eleusine indica): 14.85 g a.i./ha | Control efficacy compared with Topramezone (in words) (Portulaca oleracea): significantly better control efficacy | Efficacy relative to that of Topramezone (Portulaca oleracea): approximately 3.8 times | GR50 (95% confidence interval) (Portulaca oleracea): 3.83 (2.36-5.16) g a.i./ha | GR90 (95% confidence interval) (Portulaca oleracea): 9.29 (7.46-10.81) g a.i./ha | Visual observation of weeds [2, 3]: gradually became whitened and withered | Visual observation of weeds ([2]; 10 days after application): excellent treatment effects | Visual observation of weeds ([2]; 20 days after application): dried up and died
